This is an account of results in a melting point compilation (Tetko et al.; mined from patent text by program, amines drawn as free bases though some values may be those of a salt).

In general, melting point refers to the temperature of the solid-liquid transition.

In turn, `CCCCCCNc1ccc(N=O)cc1` had a melting point of 46 to 48 °C.
`O=C(O)Cc1c(F)c(F)nc(F)c1Cl` registered a melting point of 127 to 129 °C.
Regarding `CN1CCN(c2nc3sc4c(NCCCN5CCOCC5)ncnc4c3c3c2COC(C)(C)C3)CC1`, the melting point fell in the range of 90.6 to 92.4 °C.
To `COc1ccc(COc2nn(Cc3ccccc3)cc2CO)cc1OCc1nc(-c2ccco2)oc1C` belongs 108 to 109 °C; to `CNC(=O)ON=Cc1nn(-c2c(Cl)cc(C(F)(F)F)cc2Cl)c(N)c1S(C)=O` (stereo not drawn), 146 to 147 °C; to `NCCc1ccc(OCc2ccccc2)cc1`, 58.7 to 59.6 °C.
With `COC(=O)C(Cl)(C(=O)OC)[C@@H](C[N+](=O)[O-])c1ccccc1`, the melting point was in the range of 175 to 177 °C.
`CC(C)c1csc(/C=C/c2cc(N)ccc2Cl)n1` had a melting point of 82 to 85 °C.
`O=c1[nH]c2cc(Cl)cc(Cl)c2c(O)c1Sc1ccc(NC(=S)NCc2ccccc2)cc1` returned a melting point of 282 °C.
For the compound `CSc1c(-n2ccnc2)c(-c2ccc(Cl)c(Cl)c2)nn1C`, the melting point lay within 88 to 90 °C.
In turn, `CSc1nc(Cl)c(Cl)nc1Cl` gave a melting point of 45 to 47 °C.
As to `COc1cc(OC)c(F)c(N=Cc2cnc(SC)nc2NC2CC2)c1F`, the melting point fell in the range of 172 to 174 °C.
Take `COc1cc(SCCCc2ccc(-c3ccc(CCCSc4ccc(OCC(=O)O)c(OC)c4)cc3)cc2)ccc1OCC(=O)O`: the melting point was 178 to 180 °C.
With `CCOC(=O)c1c(Cn2cncn2)nc2sc3c(c2c1-c1ccc(OC)c(OC)c1)CCNC3` the figure was 164 to 165 °C.
Regarding `CN1C(=O)N(c2nnc(C(C)(C)C)s2)C(=O)C1O` (stereo not drawn), the melting point was in the range of 163 to 164 °C.
`COc1cccc(N(C)C(=O)Oc2ccc(C(C)C)cc2)n1` registered a melting point of 64 to 65 °C.
The compound `CCOC(=O)c1cccn1Cc1ccc(Cl)cc1[N+](=O)[O-]` displayed a melting point of 104 to 106 °C.
Take `Cc1ccc2c(c1)c(-c1ccccc1)nn2CO`: the melting point was in the range of 109 to 111 °C.
As to `Cc1ccc(S(=O)(=O)OCCC2CCN(C(c3ccccc3)(c3ccccc3)c3ccccc3)CC2)cc1`, the melting point stood at 176 °C.
For `O=C1CCc2c1ccc(F)c2F`, the melting point was 28 to 32 °C.
Consider `COC(=O)NCc1nc(-c2ccc3c(c2)Nc2ccccc2S3)cs1`, for which the melting point was 151 to 153 °C.
Take `C[C@@](O)(C(=O)Nc1ccc(S(=O)(=O)c2ccccc2S(C)(=O)=O)cc1Cl)C(F)(F)F`: the melting point was 114 to 116 °C.
`Cc1ccc(S(=O)(=O)n2cc(/C=C/C(=O)N(C)C)nc2C)cc1`: the melting point was in the range of 162 to 163 °C.
Regarding `CCCCCCCCNc1c(Nc2ccc(CC(C)NC[C@H](O)COc3cccc4[nH]c5ccccc5c34)cc2)c(=O)c1=O` (stereo partly drawn), the melting point is 125 to 131 °C.
As for `C=CCC(C(=O)OC)C1(C)CCCc2c1[nH]c1ccccc21` (stereo not drawn), the melting point was in the range of 115 to 116 °C.
Compound `NC(=O)NC(=O)c1ccccc1` yielded a melting point of 175 °C.
As for `Cc1ccc(S(=O)(=O)N(C)c2ccc(Cl)nn2)cc1`, the melting point was in the range of 80 to 81 °C.
For `CC(C)(C)c1cc(=O)cc(C(C)(C)C)s1`, the melting point lay in the range of 97 to 98 °C.
To `c1ccc(-c2nc(-c3ccc4c(c3)OCO4)c3cc4c(cc3n2)OCO4)cc1` belongs 225 to 230 °C.
In turn, `Cc1cc(C)n2nc(S(=O)(=O)Nc3ccccc3Cl)nc2n1` gave a melting point of 188 to 190 °C.
As to `CC(=O)Oc1cnccc1CCCOc1cccnc1Oc1ccccc1`, the melting point lay within 79 to 80 °C.
To `CCC1=C(c2ccc(F)c(F)c2)C(=NO)CC1` belongs 136 to 137 °C; to `CCOC(=O)NC(=S)NCCOCC1=C(C(=O)OCC)C(c2cccc(Cl)c2Cl)C(C(=O)OC)=C(C)N1` (stereo not drawn), 144 °C.
In turn, `O=C(CNC(=O)c1cccc(-c2cccc3oc(Cc4cccc(C(F)(F)F)c4)cc23)c1)NCCO` gave a melting point of 89 to 94 °C.
With `CC(C)(C)OC(=O)NC1CCc2cc(C(=O)O)ccc2C1` (stereo not drawn), the melting point is 210 to 213 °C.
As for `CCc1coc2c(Cc3ccc(C(C)C)cc3)c(C)cc(C)c12`, the melting point was 62 to 64 °C.
`CCOC(=O)C1COc2ccc(C(C)=O)cc2O1` (stereo not drawn) returned a melting point of 57 °C.
For `c1cc(NCC2CCCO2)c2cc3c(cc2n1)OCO3` (stereo not drawn), the melting point is 276 to 278 °C.
To `CCCOc1cc2c(cc1-c1cc(-c3ccc(C(=O)O)cc3)ccc1-c1ccccc1)C(C)(C)CCC2(C)C` belongs 234 °C.
With `CCCCCCCCC#CCC#CCC#CCS(=O)CC(=O)NCC` (stereo not drawn), the melting point stood at 77 °C.
Take `N#Cc1cccc(S(=O)(=O)N2c3ccccc3C[C@H]2C(=O)NCCc2ccccc2)c1`: the melting point stood at 50 °C.
To `COC(=O)CC(NC(C)=O)c1ccccc1` (stereo not drawn) belongs 58 to 67 °C; to `CN1CC(c2ccc(S(C)(=O)=O)cc2)=C(c2ccc(Cl)cc2)C1=O`, 129 to 131 °C; to `CN1CCC(c2c[nH]c3ccc(NC(=O)c4ccc(Cl)s4)nc23)CC1`, 118 to 120 °C.
`O=S1(=O)NCNc2c(-c3ccccc3)cc(-c3ccccc3)cc21` yielded a melting point of 222 to 225 °C.
To `N#Cc1ccc(NCc2cccc(F)c2)cc1` belongs 63 to 64 °C; to `CCOc1ccc(NS(=O)(=O)c2cccc3c(N(C)C)cccc23)nn1`, 194 to 198 °C; to `CC1(C)OC(c2ccc(S(C)(=O)=O)cc2)=C(c2cccc3ccccc23)C1=O`, 194 to 195 °C.
`Cc1cc(-c2ccc(Cl)c(Cl)c2)n(-c2ccc(S(N)(=O)=O)cc2)c1` gave a melting point of 136 to 138 °C.
For the compound `CCC(=O)Nc1cccc2c1C(=O)N(C1CCC(=O)NC1=O)C2=O` (stereo not drawn), the melting point fell in the range of 221 to 223 °C.
`COC(=O)CCc1cc2cc(Cl)ccc2n1S(=O)(=O)c1ccc(OC)cc1` came in with a melting point of 98 to 99 °C.
On to `CCOC(=O)c1cc2c([nH]1)CN(C(=O)OCC(Cl)(Cl)Cl)CC2`, for which the melting point lay in the range of 126 to 127 °C.
To `N#CCC(O)(c1ccc(Cl)cc1)c1ccc(-c2ccc(Cl)cc2)cc1` (stereo not drawn) belongs 123 °C.
As for `COC(=O)C1=C(C)NC(CC(=O)N2CCN(C3CC4CCC(C3)N4Cc3ccccc3OC)CC2)=C(C(=O)OC)C1c1c(Cl)cccc1Cl` (stereo not drawn), the melting point was in the range of 205 to 213 °C.
Compound `O=C(c1c(F)cccc1F)N1COCN(c2ccc(S(=O)C(F)(C(F)(F)F)C(F)(F)F)cc2F)C1=O` (stereo not drawn) displayed a melting point of 40 to 45 °C.
`O=S(=O)(c1ccc(Oc2ccc(Cl)c(Cl)c2)cc1)C(F)(F)F` had a melting point of 77 to 78 °C.
`CC1CCCC(C)N1Cc1nc(-c2ncn3c2C2CCN2C(=O)c2c(Cl)cccc2-3)no1` (stereo not drawn): the melting point was in the range of 233 to 236 °C.
To `CC(C)(C)OC(=O)NCCNC(=O)c1noc(N)c1-c1ccccc1` belongs 144 °C.
On to `CC1(C)CCC(C)(C)c2c1ccc(C=Nc1ccc(C(N)=O)cc1)c2N`, for which the melting point lay in the range of 247 to 249 °C.
On to `O[C@H]1c2cc(OCc3ccc4cc(F)ccc4n3)ccc2OC[C@H]1Oc1cccnc1`, for which the melting point is 163 to 164 °C.
In turn, `CC(C)(C)OC(=O)Nc1ccc(-c2ncn(-c3ccc(OC(F)(F)C(F)(F)F)cc3)n2)cc1` displayed a melting point of 205 to 209 °C.
As for `COc1ccc2c(c1)C(N1CCN(C)CC1)c1ccccc1C=C2` (stereo not drawn), the melting point was determined as 118 °C.
On to `CC(C)(C)OC(=O)Nc1ccc2ccc(S(=O)(=O)N(Cc3ccccc3)Cc3ccccc3)cc2c1Br`, for which the melting point lay within 150 to 151 °C.
In turn, `CCOc1nn(Cc2ccc(OCc3ccccc3)cc2)cc1CCC(=O)O` returned a melting point of 115 to 116 °C.
`COc1cc(-c2nc(NNC(=O)c3cc4c(C)c(C)ccc4n3CCCC#N)nn2CCC2CCCCC2)c(OC)cc1Cl` returned a melting point of 178 °C.
In the case of `[N-]=[N+]=Nc1cc(Cl)nc(-c2ccc([N+](=O)[O-])o2)n1`, the melting point was in the range of 114 to 116 °C.
In turn, `COc1ccc2c(C)c(CCO)c(=O)oc2c1` gave a melting point of 141 to 142 °C.
`COc1cc(-c2nc(-c3ccc(N(C)C)cc3)c(C)o2)ccc1OC(C)=O`: the melting point lay within 97 to 102 °C.
As to `Cc1ccccc1CC(=NC#N)NC(NC(=O)Cc1ccccc1)C(C)(C)C` (stereo not drawn), the melting point lay within 182 to 183 °C.
As for `O=c1c(Cl)c(OCc2ccc(Cl)cc2)cnn1-c1ccc(Cl)cc1F`, the melting point is 167 to 168 °C.
Compound `O=c1[nH]c2cc(F)ccc2c(=O)n1S(=O)(=O)c1ccc(Cl)cc1` showed a melting point of over 200 °C.
In turn, `C=CCNc1c(C(=O)OCC)cnc2cn(C)nc12` registered a melting point of 140 to 143 °C.
With `CCCCOC(=O)c1cc2cccc(O)c2[nH]1` the figure was 150 to 151 °C; with `Cc1cc(O)c(N2CC(=O)NS2(=O)=O)c(F)c1`, 164 to 166 °C.
Compound `Cc1c(-c2ccccc2)oc2cc(OCC3CO3)ccc2c1=O` (stereo not drawn) displayed a melting point of 231 to 235 °C.
`NC(=O)c1sc2ncnc(-c3cc(O)c4c(c3)OCC4)c2c1N` came in with a melting point of 285 °C.
With `COc1ccc(-c2cnn3c(N)c(-c4cccc(Cl)c4)c(C)nc23)cc1OC`, the melting point lay in the range of 223 to 226 °C.
With `Cc1cccc(P(=O)(O)c2cccc(C)c2)c1` the figure was 172 °C; with `Nc1nc(O)c2c(n1)NCC(CCc1c[nH]c(C(=O)O)c1)C2` (stereo not drawn), over 260 °C.
In turn, `CCOC(=O)N1c2cc(OC)c(OC)cc2C(=O)C(=CNC)C1C` (stereo not drawn) yielded a melting point of 154 to 156 °C.
Compound `CCOC(=O)c1nn(-c2ccc(OC(F)F)cc2)c2cccc(Cl)c2c1=O` gave a melting point of 134 °C.
Compound `Cc1nccn1-c1nc(-c2ccc(Cl)cc2)c(CCC(=O)NCCCl)o1` came in with a melting point of 155 to 156 °C.
Turning to `CCOC(=O)C(=CNc1nonc1C)C(=O)c1cc(F)c(Cl)nc1Cl`, the melting point was 139 to 142 °C.
As for `CCCCCC=CCC=CCCCCCCCCBr`, the melting point was 35 °C.
To `COCCOc1ccc(C#CC2(O)CN3CCC2CC3)c(CO)c1` (stereo not drawn) belongs 98.5 to 100 °C.
For the compound `COCCNC1CCN(c2ccc(NC(=O)c3cnn(-c4ccc(Cl)cc4)c3C)cc2C#N)CC1`, the melting point was 194 °C.
Compound `COC(=O)C(=C(/C)c1ccc(OC2CCCC2)c(OC)c1)/C(=C\c1ccccc1)C(N)=O` showed a melting point of 133 to 134 °C.
The compound `Cc1cc(C2=NN(C)C(=O)C2)c(Cl)cc1Cl` returned a melting point of 196 to 198 °C.
